How the values were obtained:
[1] = Immunostimulatory and adjuvant effect in mouse test model; assay type: in vivo, Mäuse; conditions: as component of an oil-in-water emulsion, Mäusetestmodell
[2] = Tolerability of emulsions in guinea pig test model; assay type: in vivo, Meerschweinchen; conditions: Meerschweinchentestmodell

**Q.** Which “immunstimulatorische und adjuvante Wirkung” value [1] does the source give for Hexansäurehexylester [Verbindung 2] here?
**A.** Its value is “immunstimulatorische und adjuvante Wirkung”.

**Q.** And the “Verträglichkeit der Emulsionen” value [2]?
**A.** Its value is “sehr gut verträglich”.

— EP0287830A1, “Alkanoic acid alkyl esters, method for their production and the application of aqueous emulsions of these esters in vaccines” (priority 1987, dated 1988)
